ChEMBL document CHEMBL4265899, “Trisubstituted thiazoles as potent and selective inhibitors of Plasmodium falciparum protein kinase G (PfPKG)” (Bioorg Med Chem Lett, 2018)
In brackets after ≈: the same amount, converted by molar mass.

Columns and labels:
[1] = target: Receptor-interacting serine/threonine-protein kinase 2 (Homo sapiens) (UniProt O43353); experiment: Inhibition of human RIPK2 at 100 nM
[2] = Kinetic solubility of the compound
[3] = target: MAP/microtubule affinity-regulating kinase 3 (Homo sapiens) (UniProt P27448); experiment: Inhibition of human MARK3 at 100 nM
[4] = target: T1, Inhibitor of nuclear factor kappa-B kinase subunit beta (Homo sapiens) (UniProt O14920); conditions: at 100 nM
T1 sequence (whole entry): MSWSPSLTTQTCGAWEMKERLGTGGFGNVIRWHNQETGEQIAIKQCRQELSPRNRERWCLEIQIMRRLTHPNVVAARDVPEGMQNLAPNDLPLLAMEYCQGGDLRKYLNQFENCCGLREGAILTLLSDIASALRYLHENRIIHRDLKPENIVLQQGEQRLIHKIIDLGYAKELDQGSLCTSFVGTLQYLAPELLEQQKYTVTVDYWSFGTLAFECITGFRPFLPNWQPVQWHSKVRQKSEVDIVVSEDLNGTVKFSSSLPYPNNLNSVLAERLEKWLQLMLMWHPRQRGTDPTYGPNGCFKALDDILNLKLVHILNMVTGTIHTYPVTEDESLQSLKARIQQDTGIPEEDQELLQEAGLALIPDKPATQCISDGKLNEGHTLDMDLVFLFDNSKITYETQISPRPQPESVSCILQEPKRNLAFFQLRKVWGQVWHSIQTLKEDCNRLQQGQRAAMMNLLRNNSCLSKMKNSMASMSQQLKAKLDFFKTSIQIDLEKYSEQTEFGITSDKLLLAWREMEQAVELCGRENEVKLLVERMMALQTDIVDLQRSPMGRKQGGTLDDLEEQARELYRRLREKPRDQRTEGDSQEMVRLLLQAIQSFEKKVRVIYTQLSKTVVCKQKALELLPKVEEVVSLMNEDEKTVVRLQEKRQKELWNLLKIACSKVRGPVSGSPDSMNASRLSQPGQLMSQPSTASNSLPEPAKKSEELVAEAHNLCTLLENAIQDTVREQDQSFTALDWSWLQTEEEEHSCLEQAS
Description: Inhibition of human IKKb at 100 nM

[5] = target: Maternal embryonic leucine zipper kinase (Homo sapiens) (UniProt Q14680); experiment: Inhibition of human MELK at 100 nM
[6] = target: MAP kinase-interacting serine/threonine-protein kinase 2 (Homo sapiens) (UniProt Q9HBH9); experiment: Inhibition of human MNK2 at 100 nM
[7] = target: Phosphorylase kinase (Homo sapiens) (UniProt P15735+P46020+P46019+Q93100+Q16816); experiment: Inhibition of human PHK at 100 nM; format: protein-complex assay
[8] = target: Proto-oncogene tyrosine-protein kinase Src (Homo sapiens) (UniProt P12931); experiment: Inhibition of human Src at 100 nM
[9] = target: Fibroblast growth factor receptor 1 (Homo sapiens) (UniProt P11362); experiment: Inhibition of human FGFR1 at 100 nM
[10] = target: RAC-beta serine/threonine-protein kinase (Homo sapiens) (UniProt P31751); experiment: Inhibition of human PKBbeta at 100 nM
[11] = target: Aurora kinase A (Homo sapiens) (UniProt O14965); experiment: Inhibition of human Aurora A at 100 nM
[12] = target: Serine/threonine-protein kinase Nek6 (Homo sapiens) (UniProt Q9HC98); experiment: Inhibition of human NEK6 at 100 nM
[13] = target: T2, Serine/threonine-protein kinase D1 (Homo sapiens) (UniProt Q15139); experiment: Inhibition of human PKD1 at 100 nM
T2 sequence (whole entry): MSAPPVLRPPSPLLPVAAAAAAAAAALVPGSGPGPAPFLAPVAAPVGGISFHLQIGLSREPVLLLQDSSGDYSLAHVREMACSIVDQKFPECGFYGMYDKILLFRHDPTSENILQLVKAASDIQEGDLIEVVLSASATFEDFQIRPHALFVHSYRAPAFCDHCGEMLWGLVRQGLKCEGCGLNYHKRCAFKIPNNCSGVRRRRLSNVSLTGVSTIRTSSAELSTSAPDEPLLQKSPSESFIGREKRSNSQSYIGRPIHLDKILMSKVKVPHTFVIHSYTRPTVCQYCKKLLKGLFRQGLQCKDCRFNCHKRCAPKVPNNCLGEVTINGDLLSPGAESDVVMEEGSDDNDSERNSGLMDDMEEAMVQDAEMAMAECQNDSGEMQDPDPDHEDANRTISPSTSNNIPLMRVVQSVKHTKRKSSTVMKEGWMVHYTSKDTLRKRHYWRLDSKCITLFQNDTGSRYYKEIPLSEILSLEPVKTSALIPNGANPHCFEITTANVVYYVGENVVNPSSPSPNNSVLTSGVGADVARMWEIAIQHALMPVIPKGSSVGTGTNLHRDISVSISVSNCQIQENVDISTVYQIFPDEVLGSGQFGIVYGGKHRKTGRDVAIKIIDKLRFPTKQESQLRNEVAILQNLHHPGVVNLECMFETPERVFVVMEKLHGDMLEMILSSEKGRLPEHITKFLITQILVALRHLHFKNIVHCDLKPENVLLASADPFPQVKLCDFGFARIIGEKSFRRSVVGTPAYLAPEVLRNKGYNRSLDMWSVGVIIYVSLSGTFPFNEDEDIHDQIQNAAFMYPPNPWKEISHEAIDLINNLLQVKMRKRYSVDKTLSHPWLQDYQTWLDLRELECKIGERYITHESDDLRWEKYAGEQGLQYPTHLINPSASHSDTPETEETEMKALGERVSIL

[14] = target: Serine/threonine-protein kinase 26 (Homo sapiens) (UniProt Q9P289); experiment: Inhibition of human MST4 at 100 nM
[15] = target: Dual specificity tyrosine-phosphorylation-regulated kinase 1A (Homo sapiens) (UniProt Q13627); experiment: Inhibition of human DYRK1A at 100 nM
[16] = target: Insulin receptor (Homo sapiens) (UniProt P06213); experiment: Inhibition of human IR at 100 nM
[17] = target: Glycogen synthase kinase-3 beta (Homo sapiens) (UniProt P49841); experiment: Inhibition of human GSK3beta at 100 nM
[18] = target: Serine/threonine-protein kinase N2 (Homo sapiens) (UniProt Q16513); experiment: Inhibition of human PRK2 at 100 nM
[19] = target: Casein kinase I isoform alpha (Homo sapiens) (UniProt P48729); experiment: Inhibition of human CK1 at 100 nM
[20] = target: Aurora kinase B (Homo sapiens) (UniProt Q96GD4); experiment: Inhibition of human Aurora B at 100 nM
[21] = target: 3-phosphoinositide-dependent protein kinase 1 (Homo sapiens) (UniProt O15530); experiment: Inhibition of human PDK1 at 100 nM
[22] = target: Dual specificity protein kinase TTK (Homo sapiens) (UniProt P33981); experiment: Inhibition of human TTK at 100 nM
[23] = Metabolic stability in mouse liver microsomes assessed as compound remaining after 40 mins; format: ADME, microsome; conditions: read-out: Stability
[24] = target: Mitogen-activated protein kinase kinase kinase 1 (Homo sapiens) (UniProt Q13233); experiment: Inhibition of human MEKK1 at 100 nM

Chain of Maternal embryonic leucine zipper kinase (Homo sapiens) (Q14680 whole entry, looked up): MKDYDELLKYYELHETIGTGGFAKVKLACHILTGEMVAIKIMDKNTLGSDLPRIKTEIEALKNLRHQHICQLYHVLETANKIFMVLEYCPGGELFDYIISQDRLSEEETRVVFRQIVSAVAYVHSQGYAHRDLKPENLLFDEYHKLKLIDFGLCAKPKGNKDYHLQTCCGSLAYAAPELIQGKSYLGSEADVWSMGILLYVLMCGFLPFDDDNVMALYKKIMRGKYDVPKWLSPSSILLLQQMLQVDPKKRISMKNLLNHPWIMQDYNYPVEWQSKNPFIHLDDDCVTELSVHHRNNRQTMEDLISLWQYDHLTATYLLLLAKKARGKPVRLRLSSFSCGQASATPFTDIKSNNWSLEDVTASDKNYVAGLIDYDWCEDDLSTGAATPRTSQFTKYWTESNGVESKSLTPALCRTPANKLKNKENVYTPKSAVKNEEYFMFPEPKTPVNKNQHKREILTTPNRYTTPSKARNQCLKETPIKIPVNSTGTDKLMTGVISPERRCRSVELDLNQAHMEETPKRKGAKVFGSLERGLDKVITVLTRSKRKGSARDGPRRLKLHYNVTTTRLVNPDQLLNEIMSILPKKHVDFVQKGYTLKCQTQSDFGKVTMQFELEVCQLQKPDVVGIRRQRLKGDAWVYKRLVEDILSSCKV
Chain of Aurora kinase A (Homo sapiens) (O14965 whole entry): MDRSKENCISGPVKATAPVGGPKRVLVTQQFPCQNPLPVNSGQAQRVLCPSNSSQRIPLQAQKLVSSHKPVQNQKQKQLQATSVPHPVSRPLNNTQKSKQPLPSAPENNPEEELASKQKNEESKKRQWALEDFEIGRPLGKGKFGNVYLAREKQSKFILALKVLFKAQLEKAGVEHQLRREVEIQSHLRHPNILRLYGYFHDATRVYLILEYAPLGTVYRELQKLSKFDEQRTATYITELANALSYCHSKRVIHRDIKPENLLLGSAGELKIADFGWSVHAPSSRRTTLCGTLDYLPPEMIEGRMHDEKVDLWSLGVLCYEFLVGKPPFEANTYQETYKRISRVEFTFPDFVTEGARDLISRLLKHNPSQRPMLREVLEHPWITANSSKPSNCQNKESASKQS
Chain of Glycogen synthase kinase-3 beta (Homo sapiens) (P49841 whole entry, looked up): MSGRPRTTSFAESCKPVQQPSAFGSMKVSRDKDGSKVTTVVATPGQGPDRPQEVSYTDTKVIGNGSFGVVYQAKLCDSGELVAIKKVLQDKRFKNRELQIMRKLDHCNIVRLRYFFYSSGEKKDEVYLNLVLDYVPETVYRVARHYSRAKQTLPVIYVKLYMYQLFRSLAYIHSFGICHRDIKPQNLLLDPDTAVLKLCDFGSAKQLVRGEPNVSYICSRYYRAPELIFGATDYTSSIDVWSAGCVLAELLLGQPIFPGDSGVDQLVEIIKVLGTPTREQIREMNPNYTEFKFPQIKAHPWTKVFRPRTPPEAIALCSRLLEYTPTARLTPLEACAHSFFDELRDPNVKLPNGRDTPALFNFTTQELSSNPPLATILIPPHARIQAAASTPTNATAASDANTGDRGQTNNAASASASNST
Chain of Serine/threonine-protein kinase 26 (Homo sapiens) (Q9P289 2-416 limits assumed): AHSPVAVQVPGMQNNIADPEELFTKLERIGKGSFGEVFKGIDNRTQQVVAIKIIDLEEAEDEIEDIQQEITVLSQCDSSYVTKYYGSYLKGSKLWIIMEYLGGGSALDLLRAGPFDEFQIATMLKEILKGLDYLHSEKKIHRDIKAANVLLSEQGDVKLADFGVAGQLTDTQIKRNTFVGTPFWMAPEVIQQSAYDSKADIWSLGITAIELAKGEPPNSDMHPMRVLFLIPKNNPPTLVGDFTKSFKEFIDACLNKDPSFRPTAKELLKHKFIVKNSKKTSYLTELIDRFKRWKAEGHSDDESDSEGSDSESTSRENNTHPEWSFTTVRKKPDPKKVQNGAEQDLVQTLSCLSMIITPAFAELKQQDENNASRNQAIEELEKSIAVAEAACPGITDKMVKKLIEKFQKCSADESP
Chain of MAP kinase-interacting serine/threonine-protein kinase 2 (Homo sapiens) (Q9HBH9 whole entry, looked up): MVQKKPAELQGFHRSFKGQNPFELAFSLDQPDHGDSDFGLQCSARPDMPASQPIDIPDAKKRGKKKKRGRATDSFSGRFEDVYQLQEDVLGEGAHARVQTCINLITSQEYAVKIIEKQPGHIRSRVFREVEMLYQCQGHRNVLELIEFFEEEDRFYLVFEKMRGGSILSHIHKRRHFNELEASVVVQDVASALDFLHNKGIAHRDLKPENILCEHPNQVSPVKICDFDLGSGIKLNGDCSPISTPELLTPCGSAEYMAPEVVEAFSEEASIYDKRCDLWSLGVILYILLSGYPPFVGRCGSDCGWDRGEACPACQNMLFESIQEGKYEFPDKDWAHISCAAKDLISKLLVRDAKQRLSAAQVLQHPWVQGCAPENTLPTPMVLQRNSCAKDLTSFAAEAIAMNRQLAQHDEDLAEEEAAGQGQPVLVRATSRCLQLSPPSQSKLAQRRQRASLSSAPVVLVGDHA
Chain of Proto-oncogene tyrosine-protein kinase Src (Homo sapiens) (P12931 2-536 limits assumed): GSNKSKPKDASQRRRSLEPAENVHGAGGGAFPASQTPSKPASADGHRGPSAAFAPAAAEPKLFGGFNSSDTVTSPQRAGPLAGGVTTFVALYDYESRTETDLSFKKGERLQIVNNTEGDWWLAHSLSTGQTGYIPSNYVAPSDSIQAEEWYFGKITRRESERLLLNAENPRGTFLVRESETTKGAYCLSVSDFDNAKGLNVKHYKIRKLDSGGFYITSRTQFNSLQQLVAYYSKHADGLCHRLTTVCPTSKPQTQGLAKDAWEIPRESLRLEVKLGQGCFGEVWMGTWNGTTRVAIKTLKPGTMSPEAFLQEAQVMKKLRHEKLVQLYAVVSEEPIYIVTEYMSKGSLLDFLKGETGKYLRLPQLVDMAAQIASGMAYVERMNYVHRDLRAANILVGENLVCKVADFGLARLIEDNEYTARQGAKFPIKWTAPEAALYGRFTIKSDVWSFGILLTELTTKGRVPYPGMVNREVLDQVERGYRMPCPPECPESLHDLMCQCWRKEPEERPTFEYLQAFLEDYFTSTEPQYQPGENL
Chain of RAC-beta serine/threonine-protein kinase (Homo sapiens) (P31751 whole entry): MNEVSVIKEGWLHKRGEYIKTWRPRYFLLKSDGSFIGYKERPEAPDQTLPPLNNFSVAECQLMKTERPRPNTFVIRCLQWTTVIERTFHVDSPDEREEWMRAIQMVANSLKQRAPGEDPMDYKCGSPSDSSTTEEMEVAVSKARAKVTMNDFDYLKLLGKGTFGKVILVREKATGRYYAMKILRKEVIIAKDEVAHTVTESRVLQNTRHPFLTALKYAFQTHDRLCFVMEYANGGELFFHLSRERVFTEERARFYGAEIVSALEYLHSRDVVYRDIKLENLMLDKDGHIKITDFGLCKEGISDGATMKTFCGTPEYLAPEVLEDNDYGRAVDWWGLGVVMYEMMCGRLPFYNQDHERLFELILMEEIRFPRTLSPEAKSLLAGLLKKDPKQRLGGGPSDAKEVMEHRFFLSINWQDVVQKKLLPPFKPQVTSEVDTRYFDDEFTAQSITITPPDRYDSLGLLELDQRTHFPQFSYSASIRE
Chain of Dual specificity protein kinase TTK (Homo sapiens) (P33981 whole entry): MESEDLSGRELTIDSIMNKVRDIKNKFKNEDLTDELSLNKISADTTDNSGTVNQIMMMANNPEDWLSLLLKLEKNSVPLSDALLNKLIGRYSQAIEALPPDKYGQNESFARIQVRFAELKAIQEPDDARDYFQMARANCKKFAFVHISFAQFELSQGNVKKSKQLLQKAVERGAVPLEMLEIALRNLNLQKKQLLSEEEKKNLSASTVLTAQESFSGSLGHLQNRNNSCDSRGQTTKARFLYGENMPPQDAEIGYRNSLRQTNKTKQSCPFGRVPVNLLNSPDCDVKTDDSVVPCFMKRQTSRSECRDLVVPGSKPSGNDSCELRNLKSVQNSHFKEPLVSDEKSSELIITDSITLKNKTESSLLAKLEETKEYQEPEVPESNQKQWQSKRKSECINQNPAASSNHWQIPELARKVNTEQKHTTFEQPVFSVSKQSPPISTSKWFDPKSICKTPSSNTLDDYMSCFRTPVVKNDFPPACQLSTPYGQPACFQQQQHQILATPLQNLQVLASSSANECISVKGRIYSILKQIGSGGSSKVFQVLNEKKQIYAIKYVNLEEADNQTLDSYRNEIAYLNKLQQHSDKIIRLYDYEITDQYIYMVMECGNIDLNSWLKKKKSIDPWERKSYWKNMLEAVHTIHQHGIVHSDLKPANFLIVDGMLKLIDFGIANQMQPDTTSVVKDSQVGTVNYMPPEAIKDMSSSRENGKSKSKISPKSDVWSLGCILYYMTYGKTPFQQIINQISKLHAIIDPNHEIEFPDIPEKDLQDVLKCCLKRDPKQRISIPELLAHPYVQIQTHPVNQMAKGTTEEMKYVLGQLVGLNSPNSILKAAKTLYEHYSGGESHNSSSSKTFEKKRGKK
Chain of Casein kinase I isoform alpha (Homo sapiens) (P48729 2-337 limits assumed): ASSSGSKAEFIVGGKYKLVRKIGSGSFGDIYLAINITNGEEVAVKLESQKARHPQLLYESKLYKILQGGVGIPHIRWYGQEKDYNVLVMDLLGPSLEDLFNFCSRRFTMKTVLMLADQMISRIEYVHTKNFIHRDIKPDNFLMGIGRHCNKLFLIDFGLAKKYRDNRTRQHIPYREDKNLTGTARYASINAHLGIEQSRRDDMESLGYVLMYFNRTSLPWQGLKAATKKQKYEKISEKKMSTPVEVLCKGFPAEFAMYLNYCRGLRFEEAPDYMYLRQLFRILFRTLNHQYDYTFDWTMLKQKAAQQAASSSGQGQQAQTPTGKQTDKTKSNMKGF
Chain of Aurora kinase B (Homo sapiens) (Q96GD4 whole entry): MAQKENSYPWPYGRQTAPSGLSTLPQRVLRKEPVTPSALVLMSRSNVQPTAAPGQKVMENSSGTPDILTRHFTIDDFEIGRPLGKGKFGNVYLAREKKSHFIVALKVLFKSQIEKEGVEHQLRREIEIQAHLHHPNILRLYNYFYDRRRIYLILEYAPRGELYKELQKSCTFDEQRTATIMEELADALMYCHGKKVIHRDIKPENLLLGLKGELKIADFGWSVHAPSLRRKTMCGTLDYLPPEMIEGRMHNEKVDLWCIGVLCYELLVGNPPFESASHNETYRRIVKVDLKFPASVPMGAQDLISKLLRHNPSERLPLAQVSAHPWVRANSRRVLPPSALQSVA

Compound: CN1CCC(c2nc(-c3cccc(S(C)(=O)=O)c3)c(-c3ccnc(Nc4ccc(N5CCNCC5)cc4)n3)s2)CC1
- inhibition [1]: 70 to 90%
- solubility kinetic [2]: 208 µM (≈ 123 µg/mL)
- inhibition [3]: < 70%
- inhibition [4]: < 70%
- inhibition [5]: < 70%
- inhibition [6]: < 70%
- inhibition [7]: < 70%
- inhibition [8]: < 70%
- inhibition [9]: < 70%
- inhibition [10]: < 70%
- inhibition [11]: < 70%
- inhibition [12]: < 70%
- inhibition [13]: < 70%
- inhibition [14]: < 70%
- inhibition [15]: < 70%
- inhibition [16]: < 70%
- inhibition [17]: < 70%
- inhibition [18]: < 70%
- inhibition [19]: < 70%
- inhibition [20]: < 70%
- inhibition [21]: < 70%
- inhibition [22]: < 70%
- remaining at 40 min [23]: 89%
- inhibition [24]: < 70%

Compound: CN1CCC(c2nc(-c3ccc(F)c(NS(C)(=O)=O)c3)c(-c3ccnc(NCC4CC4)n3)s2)CC1
- inhibition [1]: < 70%
- solubility kinetic [2]: 190 µM (≈ 98.2 µg/mL)
- inhibition [3]: < 70%
- inhibition [4]: < 70%
- inhibition [5]: < 70%
- inhibition [6]: < 70%
- inhibition [7]: < 70%
- inhibition [8]: < 70%
- inhibition [9]: < 70%
- inhibition [10]: < 70%
- inhibition [11]: < 70%
- inhibition [12]: < 70%
- inhibition [13]: < 70%
- inhibition [14]: < 70%
- inhibition [15]: < 70%
- inhibition [16]: < 70%
- inhibition [17]: < 70%
- inhibition [18]: < 70%
- inhibition [19]: < 70%
- inhibition [20]: < 70%
- inhibition [21]: < 70%
- inhibition [22]: < 70%
- remaining at 40 min [23]: 89%
- inhibition [24]: < 70%
